Data set [1] concerns human MCF7 tumor cells. Nature of the data set: Proliferation assay (crystal violet). The class given is cell-based. The note with it: 96 h, 4 days incubation, read-out: MCF-7 IC50. As to the method: Cultivated human MCF7 tumor cells were flattened out at a density of 5000 cells/measuring point in a 96-well multititer plate in 200 μl of the corresponding growth medium. After 24 hours, the cells of one plate (zero-point plate) were colored with crystal violet (see below), while the medium of the other plates was replaced by fresh culture medium (200 μl), to which the test substances were added in various concentrations (0 μm, as well as in the range of 0.01-30 μm; the final concentration of the solvent dimethyl sulfoxide was 0.5%). The cells were incubated for 4 days in the presence of test substances. The cell proliferation was determined by coloring the cells with crystal violet: the cells were fixed by adding 20 μl/measuring point of an 11% glutaric aldehyde solution for 15 minutes at room temperature. After three washing cycles of the fixed cells with water, the plates were dried at room temperature. The cells were colored by adding 100 μl/measuring point of a 0.1% crystal violet solution (the pH was set at 3 by adding acetic acid). After three washing cycles of the colored cells with water, the plates were dried at room temperature. The dye was dissolved by adding 100 μl/measuring point of a 10% acetic acid solution. The extinction was determined by photometry at a wavelength of 595 nm. The change of cell growth, in percent, was calculated by standardization of the measured values to the extinction values of the zero-point plate (=0%) and the extinction of the untreated (0 μm) cells (=100%).

Data set [2] deals with KDR (VEGFR II) (Homo sapiens, UniProt P35968). Nature of the data set: KDR (VEGFR II) kinase assay. In kind it is biochemical. The note with it: poly-(Glu4Tyr) substrate, 33P-ATP, 10 minutes at room temperature. As to the method: (§1) KDR (VEGFR II) and Tie2 Assay
(§2) In a microtiter plate (without protein binding!) that tapers to a point, the solutions are mixed in the following sequence:
(§3) 10 μl of substrate mixture
(§4) 10 μl of inhibitor dilution
(§5) 10 μl of enzyme solution.
(§6) It is mixed thoroughly and incubated for 10 minutes at room temperature. Then, 10 μl of the stop solution is added, mixed, and 10 μl of the solution is transferred to a P 81, phosphocellulose filter. It is washed several times in 0.1 M phosphoric acid. The filter paper is dried, coated with Meltilex and measured in a microbeta. The IC50 values are determined from the inhibitor concentration that is necessary to inhibit the phosphate incorporation to 50% of the uninhibited incorporation after removal of the blank reading (EDTA-stopped reaction).
(§7) Substrate solvent: 10 mmol of DTT, 10 mmol of MnCl2, 100 mmol of MgCl2 (DTT slightly oxidized, frozen at −80° C.). Before the test, 1:10 diluted with H2O.
(§8) Enzyme solvent: 120 mmol of TrisCl, pH 7.5; 10 μmol of Na3VO4.
(§9) 10 μl of volume of ATP stock solution A+25 μCi γ-^33P-ATP (about 2.5 μl of stock solution B)+30 μl of poly-(Glu4Tyr) stock solution C+1.21 ml of substrate solvent
(§10) Substances corresponding to the dilutions, 3% DMSO in substrate solvent as a control
(§11) 11.25 μg of the enzyme stock solution (KDR and FLT-1 kinase and Tie2) are diluted at of enzyme solvent (other amounts in the case of other activity!).
(§12) Stop Solution: […] of EDTA, pH 7.0
(§13) Washing Solution: 0.5% phosphoric acid

Data set [3] deals with T1, CDK2/CycE (Homo sapiens, UniProt P24941).
T1 construct: GST; purchased Dr. Dieter Marme, Klinik für Tumorbiologie, Freiburg (obtained from an outside laboratory, not a commercial vendor); host or cells: baculovirus-infected insect cells (Sf9)
As to the kind of experiment: CDK2/CycE kinase assay. The class given is biochemical. The note with it: histone IIIS substrate, 0.5 μm ATP, 15 minutes at 22° C. As to the method: Recombinant CDK2- and CycE-GST-fusion proteins, purified from baculovirus-infected insect cells (Sf9), were obtained by Dr. Dieter Marme, Klinik für Tumorbiologie [Clinic for Tumor Biology], Freiburg. Histone IIIS, which was used as a kinase substrate, was purchased by the Sigma Company.
CDK2/CycE (50 ng/measuring point) was incubated for 15 minutes at 22° C. in the presence of various concentrations of test substances (0 μm, as well as within the range of 0.01-100 μm) in assay buffer [50 mmol of tris/HCl pH 8.0, 10 mmol of MgCl2, 0.1 mmol of Na ortho-vanadate, 1.0 mmol of dithiothreitol, 0.5 μm of adenosine triphosphate (ATP), 10 μg/measuring point of histone IIIS, 0.2 μCi/measuring point of ^33P-gamma ATP, 0.05% NP40, 12.5% dimethyl sulfoxide]. The reaction was stopped by adding EDTA solution (250 mmol, pH 8.0, 14 μl/measuring point).
From each reaction batch, 10 μl was applied to P30 filter strips (Wallac Company), and non-incorporated ^33P-ATP was removed by subjecting the filter strips to three washing cycles for 10 minutes each in 0.5% phosphoric acid. After the filter strips were dried for one hour at 70° C., the filter strips were covered with scintillator strips (MeltiLex™ A, Wallac Company) and baked for one hour at 90° C. The amount of incorporated ^33P (substrate phosphorylation) was determined by scintillation measurement in a gamma-radiation measuring device (Wallac).

In data set [4] the target is Tie2 (Homo sapiens, UniProt Q02763). As to the kind of experiment: Tie2 kinase assay. In kind it is biochemical. The note with it: poly-(Glu4Tyr) substrate, 33P-ATP, 10 minutes at room temperature; read-out: Tie 2 IC50. How it is done: as §1, §2, §3, §4, §5, §6, §7, §8, §9, §10, §11, §12, §13

The source of these data is patent US20040186288A1, “3,5-Diamino-1,2,4-triazoles as kinase inhibitors” (priority 2001, published 2004).

Sequence of Tie2 (Q02763 23-1124, species assumed): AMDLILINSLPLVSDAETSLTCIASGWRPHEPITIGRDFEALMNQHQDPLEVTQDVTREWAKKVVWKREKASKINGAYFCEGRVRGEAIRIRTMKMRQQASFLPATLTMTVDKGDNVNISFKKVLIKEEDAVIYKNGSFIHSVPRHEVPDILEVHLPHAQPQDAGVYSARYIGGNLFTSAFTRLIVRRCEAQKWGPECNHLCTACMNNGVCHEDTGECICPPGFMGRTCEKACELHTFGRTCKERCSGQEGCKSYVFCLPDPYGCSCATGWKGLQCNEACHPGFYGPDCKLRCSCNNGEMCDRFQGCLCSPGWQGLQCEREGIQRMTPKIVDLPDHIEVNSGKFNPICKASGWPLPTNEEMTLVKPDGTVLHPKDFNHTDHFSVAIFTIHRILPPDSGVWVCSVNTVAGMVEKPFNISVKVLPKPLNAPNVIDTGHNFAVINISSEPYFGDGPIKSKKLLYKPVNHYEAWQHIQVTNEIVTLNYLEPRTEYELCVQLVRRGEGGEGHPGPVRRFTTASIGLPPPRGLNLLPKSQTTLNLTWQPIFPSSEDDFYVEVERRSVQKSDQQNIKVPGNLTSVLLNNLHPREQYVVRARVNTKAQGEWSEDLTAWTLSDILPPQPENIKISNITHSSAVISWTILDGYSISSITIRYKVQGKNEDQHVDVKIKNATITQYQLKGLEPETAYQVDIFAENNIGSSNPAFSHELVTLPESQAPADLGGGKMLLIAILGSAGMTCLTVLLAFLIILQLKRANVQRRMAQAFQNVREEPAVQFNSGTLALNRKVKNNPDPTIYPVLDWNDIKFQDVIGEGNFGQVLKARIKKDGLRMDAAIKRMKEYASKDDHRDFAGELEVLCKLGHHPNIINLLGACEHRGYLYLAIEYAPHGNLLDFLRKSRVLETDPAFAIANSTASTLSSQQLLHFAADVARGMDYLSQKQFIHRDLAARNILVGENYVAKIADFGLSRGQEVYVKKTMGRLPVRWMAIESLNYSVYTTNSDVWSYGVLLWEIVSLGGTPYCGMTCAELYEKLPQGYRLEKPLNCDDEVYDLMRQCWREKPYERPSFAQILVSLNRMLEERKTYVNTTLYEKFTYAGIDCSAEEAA
Sequence of KDR (VEGFR II) (P35968 20-1356, species assumed): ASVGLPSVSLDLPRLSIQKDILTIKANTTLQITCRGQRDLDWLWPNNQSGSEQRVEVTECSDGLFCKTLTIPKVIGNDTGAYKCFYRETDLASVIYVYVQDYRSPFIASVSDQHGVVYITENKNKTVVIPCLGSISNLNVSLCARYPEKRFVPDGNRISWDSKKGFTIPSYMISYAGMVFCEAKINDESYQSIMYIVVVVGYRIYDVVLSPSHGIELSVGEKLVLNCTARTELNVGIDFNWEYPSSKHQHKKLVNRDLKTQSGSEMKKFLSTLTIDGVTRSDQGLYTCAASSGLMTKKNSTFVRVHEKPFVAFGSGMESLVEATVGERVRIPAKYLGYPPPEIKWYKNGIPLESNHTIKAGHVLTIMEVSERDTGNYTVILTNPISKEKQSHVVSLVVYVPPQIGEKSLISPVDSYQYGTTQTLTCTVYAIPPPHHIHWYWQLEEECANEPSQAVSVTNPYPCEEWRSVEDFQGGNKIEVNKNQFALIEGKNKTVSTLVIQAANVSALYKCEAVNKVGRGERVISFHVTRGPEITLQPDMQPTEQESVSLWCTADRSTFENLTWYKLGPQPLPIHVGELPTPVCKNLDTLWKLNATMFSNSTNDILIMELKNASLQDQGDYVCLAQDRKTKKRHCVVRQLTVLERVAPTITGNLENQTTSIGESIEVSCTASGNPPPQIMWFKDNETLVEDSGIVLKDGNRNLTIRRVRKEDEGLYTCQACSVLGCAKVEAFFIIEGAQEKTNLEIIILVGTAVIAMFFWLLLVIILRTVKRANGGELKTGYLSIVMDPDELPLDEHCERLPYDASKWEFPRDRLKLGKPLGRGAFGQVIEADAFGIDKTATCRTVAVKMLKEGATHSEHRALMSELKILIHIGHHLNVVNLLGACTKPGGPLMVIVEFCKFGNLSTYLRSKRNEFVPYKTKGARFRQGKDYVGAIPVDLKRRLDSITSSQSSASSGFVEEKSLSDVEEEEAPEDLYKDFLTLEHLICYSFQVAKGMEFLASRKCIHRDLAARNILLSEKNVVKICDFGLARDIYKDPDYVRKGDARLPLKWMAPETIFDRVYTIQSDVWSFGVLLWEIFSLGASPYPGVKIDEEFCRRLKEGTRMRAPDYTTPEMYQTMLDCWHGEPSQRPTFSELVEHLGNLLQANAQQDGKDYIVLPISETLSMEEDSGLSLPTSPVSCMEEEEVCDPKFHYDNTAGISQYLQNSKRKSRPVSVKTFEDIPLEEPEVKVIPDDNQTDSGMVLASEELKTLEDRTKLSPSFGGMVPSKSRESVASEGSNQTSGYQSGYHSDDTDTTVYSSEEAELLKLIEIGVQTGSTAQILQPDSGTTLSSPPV

`Nc1nc(Nc2cccnc2)nn1-c1ccccn1` [Example 1, 5-Amino-1-(2-pyridinyl)-3-(3-pyridinylamino)-1H-1,2,4-triazole]: the IC50 in data set [1] amounted to 1500 nM.

The compound `Cc1cc(C(F)(F)F)cc(-n2nc(Nc3cccnc3)nc2N)n1` [Example 3] had a melting point of 212 °C. The IC50 in data set [2] is 10 nM. For the same compound, the IC50 in data set [3] came to 2000 nM. Further, in data set [4], the IC50 is more than 1000 nM. In addition, in data set [1], the IC50 is more than 10000 nM.

In turn, `Nc1nc(Nc2cccnc2)nn1-c1ncccc1C(F)(F)F` [Example 4] gave a melting point of 255 °C. Also, in data set [2], the IC50 turned out to be 30 nM. This compound also gave an IC50 in data set [3] of 6000 nM. In data set [4], the half-maximal inhibitory concentration (IC50) was more than 1000 nM. For the same compound, the half-maximal inhibitory concentration (IC50) in data set [1] came out at 6000 nM.

Compound `Nc1nc(Nc2cccnc2)nn1-c1ccc2ccccc2c1` [Example 5] displayed a melting point of 247 °C. Besides, the IC50 in data set [2] is 10 nM. Moreover, the half-maximal inhibitory concentration (IC50) in data set [3] turned out to be 400 nM. Further, the IC50 in data set [4] is more than 1000 nM. In addition, in data set [1], the IC50 was 2000 nM.

Turning to `Nc1nc(Nc2cccnc2)nn1-c1ccc(C(F)(F)F)cn1` [Example 6], the melting point was determined as 254 °C. Besides, 200 nM corresponded to half-maximal inhibition in data set [2] (IC50). Moreover, half-maximal inhibition in data set [3] (IC50) required 2000 nM. Further, the concentration for half-maximal inhibition (IC50) in data set [4] is more than 1000 nM. Moreover, in data set [1], the IC50 was found to be 4000 nM.

In turn, `Nc1nc(Nc2cccnc2)nn1-c1cccnc1` [Example 7] showed a melting point of 234 °C.

The compound `Nc1nc(Nc2cccnc2)nn1-c1ccccc1` [Example 8] showed a melting point of 223 °C.

Consider `COc1ccc(Nc2nc(N)n(-c3ccccn3)n2)cn1` [Example 9], for which the melting point is 237 °C. Besides, half-maximal inhibition in data set [2] (IC50) was put at 50 nM. Further, in data set [3], the IC50 is 1000 nM. In data set [4], the IC50 came to 500 nM. The IC50 in data set [1] was more than 10000 nM.

Consider `Nc1nc(Nc2cnc3ccccc3c2)nn1-c1ccccn1` [Example 10], for which the melting point was found to be 225 °C. In data set [2], the half-inhibitory concentration (IC50) worked out at 20 nM. Moreover, the half-maximal inhibitory concentration (IC50) in data set [3] came out at 800 nM. The concentration for half-maximal inhibition (IC50) in data set [4] amounted to 500 nM. For the same compound, in data set [1], the IC50 worked out at 4000 nM.

As for `COc1ncccc1Nc1nc(N)n(-c2ccccn2)n1` [Example 11], the melting point came to 169 °C.

Take `Nc1nc(Nc2cnc3ccccc3c2)nn1-c1ccc2ccccc2n1` [Example 12]: the melting point came to 249 °C.

`Nc1nc(Nc2cccnc2)nn1-c1nccc2ccccc12` [Example 13] had a melting point of 246 °C. In addition, half-maximal inhibition in data set [2] (IC50) was put at 20 nM. Besides, the half-maximal inhibitory concentration (IC50) in data set [3] is 200 nM. The IC50 in data set [4] worked out at 500 nM. For the same compound, the IC50 in data set [1] was 700 nM.

Turning to `COc1ccc(Nc2nc(N)n(-c3ccccn3)n2)c(OC)n1` [Example 14], the melting point worked out at 159 °C.

`Nc1nc(Nc2cncc(Br)c2)nn1-c1ccccn1` [Example 15] yielded a melting point of 285 °C. For the same compound, in data set [2], the half-inhibitory concentration (IC50) came to 40 nM. For the same compound, 300 nM corresponded to half-maximal inhibition in data set [3] (IC50). Further, the 50% inhibitory concentration (IC50) in data set [4] was 500 nM. For the same compound, in data set [1], the half-maximal inhibitory concentration (IC50) was 1100 nM.

With `Nc1nc(Nc2cncc3ccccc23)nn1-c1ccccn1` [Example 16], the melting point amounted to 287 °C. In data set [2], this compound yielded a concentration for half-maximal inhibition (IC50) of 20 nM. This compound also gave an IC50 in data set [3] of 2800 nM.

With `Nc1nc(Nc2cnc3ncccc3c2)nn1-c1ccccn1` [Example 17], the melting point is 253 °C. Also, half-maximal inhibition in data set [2] (IC50) required 30 nM. In data set [3], this compound displayed an IC50 of 500 nM. For the same compound, in data set [4], the IC50 is more than 1000 nM. For the same compound, in data set [1], the half-maximal inhibitory concentration (IC50) worked out at 1500 nM.

Turning to `Nc1nc(Nc2nccc3ccccc23)nn1-c1ccccn1` [Example 18], the melting point stood at 278 °C.

`Nc1nc(Nc2ccc3ccccc3n2)nn1-c1ccccn1` [Example 19] returned a melting point of 326 °C.

In the case of `Nc1nc(Nc2cnccc2Cl)nn1-c1ccccn1` [Example 20], the melting point came to 193 °C.

With `Cc1ccc(Nc2nc(N)n(-c3ccccn3)n2)c(C)n1` [Example 21], the melting point was 191 °C.

What is called IC50 is the midpoint of a concentration-inhibition curve. As a reminder, the melting point is the temperature of the solid-liquid transition.
